Here are results for nine compounds from US7632827B2, “Anti-cancer phosphine containing [AuIIIm(CNC)mL]n+ complexes and derivatives thereof and methods for treating cancer using such compositions” (The University of Hong Kong, priority 2006, dated 2009).

For data set [1], the system named is CNE1 (human nasopharyngeal carcinoma, cisplatin resistance). Description: MTT cytotoxicity, CNE1. The conditions noted are these: 72 h. Type of data set: cell-based. On the procedure:
(§1) The cytotoxicities of the gold(III) compounds toward several human cancer cell lines including nasopharyngeal carcinoma (SUNE1, and its cisplatin variant CNE1), hepatocellular carcinoma (HepG2), and cervical epitheloid carcinoma (HeLa) were determined using a well-established MTT assay.

In data set [2] the test system is SUNE1 (human nasopharyngeal carcinoma, cisplatin sensitive). Description: MTT cytotoxicity, SUNE1. It counts as cell-based. The settings on record: 72 h. On the procedure: as §1
The subject of data set [3] is HeLa (human cervical epithelioid carcinoma). Description: MTT cytotoxicity, HeLa. It counts as cell-based. The conditions noted are these: 72 h. The method, then: as §1
The test system of data set [4] is HepG2 (human hepatocellular carcinoma). In words: MTT cytotoxicity, HepG2. The settings on record: 72 h. Type of data set: cell-based. On the procedure:
as §1

Data set [5] can be described thus: Cyclic voltammetry in DMF. It counts as physicochemical. The settings on record: comparison value. The text has this: The electrochemical properties of the gold(III) compounds in DMF were studied by cyclic voltammetry. As compared to KAuCl4 [E°gold(III)→gold(I)=−0.4 V], the substantially more cathodic potentials of −1.43 to −1.83 V vs Cp2Fe^+/0 required for the gold(III) reduction in all the gold(III) compounds is consistent with stabilization of gold(III) by the dianionic CNC ligand.

Data set [6] relates to SUNE1 cells. In words: Cell cycle analysis by flow cytometry (propidium iodide). It counts as cell-based, human. The settings on record: 24- or 48-h incubation. The method, then:
To find out whether cellular DNA is a major target of the gold(III) compounds, we studied the cell cycle profiles of 3d-treated cancer cells. Cell cycle analysis was performed by assessing the DNA content of cells stained with propidium iodide using flow cytometry. This enables quantification of the total cellular populations in the different phases of the cell cycle (G0/G1, S and G2/M). […] Compound 3d appears to affect its cytotoxicity via some alternative mechanistic pathways.

Data set [7] relates to cancers. Description: Potency against cancers compared with cis-platin.
Data set [8] relates to 100-base pair DNA ladder. Description: Gel mobility shift assay (DNA intercalation). Type of data set: binding. The conditions noted are these: 1.5% agarose gel, DNA 50 μM bp-1. The method, then: A gel mobility shift assay was employed to determine the intercalating property 3d [E. C. Long, J. K. Barton, Acc. Chem. Res. 1990, 23, 271] to evaluate the effect 3d, had upon the DNA binding affinities. A 100-base pair DNA ladder treated with 3d, or ethidium bromide (EB, DNA intercalator) as well as a control were resolved by agarose gel electrophoresis. Briefly, gel electrophoresis of 100-bp DNA ladder on a 1.5% (w/v) agarose gel was performed showing the mobility of DNA (50 μM bp-1) in the absence or presence of ethidium bromide (EB), or compound 3d. […] The bound DNA would have lower mobility compared to that of the free DNA.

Data set [9] deals with several human cancer cell lines. In words: Cytotoxic activities against several cancer cell lines (MTT). Type of data set: cell-based. On the procedure:
as §1
A number of structurally distinct gold(III)-phosphino compounds (3a-g) were synthesized and assayed for cytotoxic activities against several cancer cell lines (see Table 1). […] Whereas, shortening (n=1 or 2) or lengthening (n=4, 5 or 6) the hydrocarbon linker reduced the cytotoxicity, with IC50 values increasing by at least an order of magnitude.

Data set [10] concerns nude mice. Description: In vivo toxicity studies in nude mice.
The nature of data set [11]: Solution stability (UV-vis, NMR). Type of data set: physicochemical. The conditions noted are these: 24 h.

`c1ccc([P+](c2ccccc2)(c2ccccc2)[Au-]23[c]4ccccc4-c4cccc([n+]42)-c2cccc[c]23)cc1` [3a]: in [1], the IC50 came to 11000 ± 2000 nM and the “IC50 ratio (CNE1/SUNE1), resistance factor” value (“IC50 ratio (CNE1/SUNE1)” for short) amounted to 0.65. In addition, the midpoint of inhibition in data set [2], the IC50, lay at 17000 ± 2000 nM.

On to `O=S(=O)([O-])C(F)(F)F.O=S(=O)([O-])C(F)(F)F.c1ccc([P+](CCCC[P+](c2ccccc2)(c2ccccc2)[Au-]23[c]4ccccc4-c4cccc([n+]42)-c2cccc[c]23)(c2ccccc2)[Au-]23[c]4ccccc4-c4cccc([n+]42)-c2cccc[c]23)cc1` [3e, [Au2(CNC)2(μ-dppb)](CF3SO3)2], for which the IC50 was 2200 ± 300 nM in [1], 1500 ± 200 nM in [2] and 2400 ± 200 nM in [3]. For the same compound, in data set [1], the “IC50 ratio (CNE1/SUNE1)” value turned out to be 1.5.

As to `O=S(=O)([O-])C(F)(F)F.O=S(=O)([O-])C(F)(F)F.c1ccc([P+](CCCCC[P+](c2ccccc2)(c2ccccc2)[Au-]23[c]4ccccc4-c4cccc([n+]42)-c2cccc[c]23)(c2ccccc2)[Au-]23[c]4ccccc4-c4cccc([n+]42)-c2cccc[c]23)cc1` [3f, [Au2(CNC)2(μ-dpppe)](CF3SO3)2], the 50% inhibitory concentration (IC50) in [1] stood at 2500 ± 300 nM; in data set [2] it was 1600 ± 300 nM; in data set [3] it was 1500 ± 300 nM. The “IC50 ratio (CNE1/SUNE1)” value in data set [1] amounted to 1.6.

On to `O=S(=O)([O-])C(F)(F)F.O=S(=O)([O-])C(F)(F)F.c1ccc([P+](CCCCCC[P+](c2ccccc2)(c2ccccc2)[Au-]23[c]4ccccc4-c4cccc([n+]42)-c2cccc[c]23)(c2ccccc2)[Au-]23[c]4ccccc4-c4cccc([n+]42)-c2cccc[c]23)cc1` [3g, [Au2(CNC)2(μ-dpph)](CF3SO3)2], for which the IC50 is 3200 ± 500 nM in [1], 4300 ± 900 nM in data set [2] and 3200 ± 400 nM in [3]. Also, the “IC50 ratio (CNE1/SUNE1)” value in data set [1] worked out at 0.74.

As to `O=S(=O)([O-])C(F)(F)F.O=S(=O)([O-])C(F)(F)F.O=S(=O)([O-])C(F)(F)F.c1ccc([P+](CC[P+](c2ccccc2)(c2ccccc2)[Au-]23[c]4ccccc4-c4cccc([n+]42)-c2cccc[c]23)(CC[P+](c2ccccc2)(c2ccccc2)[Au-]23[c]4ccccc4-c4cccc([n+]42)-c2cccc[c]23)[Au-]23[c]4ccccc4-c4cccc([n+]42)-c2cccc[c]23)cc1` [3h, [Au3(CNC)3(μ-dpep)](CF3SO3)3], the IC50 in data set [1] stood at 400 ± 50 nM; in data set [4], 3800 ± 600 nM; in data set [2], 260 ± 30 nM; in data set [3], 930 ± 90 nM. The “IC50 ratio (CNE1/SUNE1)” value in [1] is 1.5.

For the compound `[Cl][Au-]([Cl])([Cl])[Cl].[K+]` [KAuCl4], the “E° gold(III)→gold(I)” value in data set [5] is −0.4 V.

For `[Cl-].[Cl][Pt-2]12[n+]3ccccc3-c3cccc([n+]31)-c1cccc[n+]12` [[Pt(terpy)Cl]Cl, reference compound], the half-inhibitory concentration (IC50) was 13000 ± 2000 nM in data set [1], 23000 ± 3000 nM in [4], 11000 ± 3000 nM in data set [2] and 14000 ± 2000 nM in data set [3]. Besides, the “IC50 ratio (CNE1/SUNE1)” value in [1] is given as 1.2.

For `N.N.[Cl][Pt][Cl]` [cisplatin, reference compound], the IC50 was 3300 ± 500 nM in data set [1], 1600 ± 200 nM in [4], 1000 ± 100 nM in data set [2] and 11000 ± 1000 nM in data set [3]. In addition, the “IC50 ratio (CNE1/SUNE1)” value in data set [1] turned out to be 3.3.

For the compound `O=S(=O)([O-])C(F)(F)F.O=S(=O)([O-])C(F)(F)F.c1ccc([P+](CCC[P+](c2ccccc2)(c2ccccc2)[Au-]23[c]4ccccc4-c4cccc([n+]42)-c2cccc[c]23)(c2ccccc2)[Au-]23[c]4ccccc4-c4cccc([n+]42)-c2cccc[c]23)cc1` [compound 3d, [Au2(CNC)2(μ-dppp)](CF3SO3)2], in data set [6], the “Effect on cell cycle” value was “did not significantly affect the cell cycle”. Besides, the “potency against cancers relative to cis-platin” value in data set [7] is given as “about 200 times”. In addition, the “DNA intercalation (tailing effect in gel)” value in data set [8] is listed as “does not bind to DNA by intercalation”. In addition, the IC50 in [1] came out at 91 nM; in data set [4] it was 210 ± 90 nM; in data set [2] it was 55 nM; in data set [3], 43 nM. In addition, the “IC50 ratio (CNE1/SUNE1)” value in data set [1] worked out at 1.7. Further, the “Relative cytotoxicity among metal-free and metallated 1,2-bis(diphenylphosphino)Cn compounds” value in data set [9] is listed as “most cytotoxic”. Further, in [10] (concentrations 20-fold higher than the effective dose), the “toxicity to nude mice” value is “non-toxic”. In addition, the “DNA mutation upon usage” value in data set [10] (mouse, in vivo) is “does not cause DNA mutation”. Besides, the “Stability on standing in DMSO or TBS (UV-vis, 31P, 1H NMR)” value in [11] is recorded as “no UV-vis, ^31P or ^1H NMR spectral changes”.

What is called IC50 is the concentration that gives 50% inhibition. A higher IC50 goes with weaker potency.
